Test results reported in US9174965B2, “Pyrimidinylpiperidinyloxypyridone analogues as GPR119 modulators” (BRISTOL-MYERS SQUIBB COMPANY, priority 2012, dated 2015).
Like-named read-outs stand apart in the source and are kept apart here.

Tests used:
[1] = in vitro; conditions: human, microsomes, pH 7.4
Procedure: Metabolic Stability in Liver Microsomes Test
The test compound was received as a 3.5 mM stock solution in 100 percent dimethyl sulfoxide (“DMSO”, Sigma Aldritch). The compound solution was diluted to create a 50 μM acetonitrile (“ACN”, Sigma Aldritch) solution containing 1.4% DMSO, which is then used as a 100-fold stock for incubation with microsomes. The test compound, β-nicotinamide adenine dinucleotide phosphate (“NADPH”, AppliChem Inc.) and liver microsome solutions are combined for incubation in three steps:
1) 450 μl of liver microsome suspension, protein concentration of 1.1 mg/ml in 100 mM sodium (+)/phosphate (“NaPi”, pH 7.4, Sigma Aldritch) buffer, 5 mM magnesium chloride (“MgCl2, Sigma Aldritch) buffer, is pre-warmed at 37° C.;
2) 5 μl of 50 μM test compound (98.6% ACN, 1.4% DMSO) is added to the same tube and pre-incubated at 37° C. for 5 minutes; and
3) The reaction is initiated by the addition of 50 μl of pre-warmed 10 mM NADPH solution in 100 mM NaPi, pH 7.4.
Reaction components are mixed well and then 65 μl are immediately transferred into 130 μl quench/stop solution (zero-time point, T0). The reactions are incubated at 37° C. for 5, 10, 15, 30 and 45 minutes and at each time-point a 65 μl aliquot is transferred into 130 μl of quench solution. ACN containing Internal Standard (100 ng/ml), is used as the quench solution to terminate metabolic reactions. The quenched mixtures are centrifuged at 1500 rpm (˜500×g) in an Allegra X-12 centrifuge, SX4750 rotor (Beckman Coulter Inc., Fullerton, Calif.) for fifteen minutes to pellet denatured microsomes. A volume of 90 μl of supernatant extract, containing the mixture of parent compound and its metabolites, is then transferred to a separate 96-well plate for LC/MS-MS analysis to determine the percent of parent compound that is remaining in the mixture. Peak integration is performed on all samples using the Hepatic Clearance Calculator of QuickCalc by Gubbs, Inc. The percent remaining calculation is performed by comparing the LC-MS/MS peak areas from the samples at each time point to those from the T0 samples for each compound. T1/2 values are calculated from linear regression of the LN (% Remaining) over time, and the slope of that regression (Kel) is used to calculate T1/2, using the following equation: T1/2=−0.693/Kel.

[2] = target: L-type calcium channel Cav1.2 (Homo sapiens (Human), UniProt Q13936); assay: Patch clamp electrophysiology assay, L-type calcium channel; format: cell-based; conditions: pH 7.35, HEK293, read-out: Ca % Inhibition
Procedure: (§1) Compound Electrophysiology Assays
(§2) Recombinant ion channels (hERG, sodium [SCN5A], and L-type calcium [Cav1.2]) stably expressed in human embryonic kidney cells (HEK293) are used as test systems, and each system is tested using 2-3 replicates in the conventional patch clamp assay.
(§3) Ion channel membrane current recordings are made with a Multiclamp 700 series integrating patch-clamp amplifier (Axon Instruments, Foster City, Calif.) using the whole-cell variant of the patch-clamp technique.
Cells expressing hERG, sodium [SCN5A], or L-type calcium [Cav1.2] channels are placed in a plexiglass bath chamber, mounted on the stage of an inverted microscope, and perfused continuously with bath solution. […]
L-type calcium currents are elicited by 200 ms step depolarizations applied from a holding potential of −50 mV to a test potential of +30 mV. The voltage steps are applied in 5 second intervals (0.2 Hz) and the peak inward current is recorded. […] The peak inward current is monitored until a new steady-state in the presence of test article is achieved.
Compounds are tested in 3 cells at each concentration in each ion channel assay. […] All currents were recorded at room temperature ˜25° C. IC50 values are calculated using the sigmoidal concentration-response equation Y=A+((B−A)/(1+((C/X)^D))) in XLfit where A and B are the minimum and maximum % inhibition, C is the IC50 and D is the slope factor. […]

[3] = target: sodium channel SCN5A (Homo sapiens (Human), UniProt Q14524); assay: Patch clamp electrophysiology assay, sodium channel; format: cell-based; conditions: pH 7.4, 10 μM, HEK293, read-out: Na % Inhibition
Chain of sodium channel SCN5A (Q14524 whole entry): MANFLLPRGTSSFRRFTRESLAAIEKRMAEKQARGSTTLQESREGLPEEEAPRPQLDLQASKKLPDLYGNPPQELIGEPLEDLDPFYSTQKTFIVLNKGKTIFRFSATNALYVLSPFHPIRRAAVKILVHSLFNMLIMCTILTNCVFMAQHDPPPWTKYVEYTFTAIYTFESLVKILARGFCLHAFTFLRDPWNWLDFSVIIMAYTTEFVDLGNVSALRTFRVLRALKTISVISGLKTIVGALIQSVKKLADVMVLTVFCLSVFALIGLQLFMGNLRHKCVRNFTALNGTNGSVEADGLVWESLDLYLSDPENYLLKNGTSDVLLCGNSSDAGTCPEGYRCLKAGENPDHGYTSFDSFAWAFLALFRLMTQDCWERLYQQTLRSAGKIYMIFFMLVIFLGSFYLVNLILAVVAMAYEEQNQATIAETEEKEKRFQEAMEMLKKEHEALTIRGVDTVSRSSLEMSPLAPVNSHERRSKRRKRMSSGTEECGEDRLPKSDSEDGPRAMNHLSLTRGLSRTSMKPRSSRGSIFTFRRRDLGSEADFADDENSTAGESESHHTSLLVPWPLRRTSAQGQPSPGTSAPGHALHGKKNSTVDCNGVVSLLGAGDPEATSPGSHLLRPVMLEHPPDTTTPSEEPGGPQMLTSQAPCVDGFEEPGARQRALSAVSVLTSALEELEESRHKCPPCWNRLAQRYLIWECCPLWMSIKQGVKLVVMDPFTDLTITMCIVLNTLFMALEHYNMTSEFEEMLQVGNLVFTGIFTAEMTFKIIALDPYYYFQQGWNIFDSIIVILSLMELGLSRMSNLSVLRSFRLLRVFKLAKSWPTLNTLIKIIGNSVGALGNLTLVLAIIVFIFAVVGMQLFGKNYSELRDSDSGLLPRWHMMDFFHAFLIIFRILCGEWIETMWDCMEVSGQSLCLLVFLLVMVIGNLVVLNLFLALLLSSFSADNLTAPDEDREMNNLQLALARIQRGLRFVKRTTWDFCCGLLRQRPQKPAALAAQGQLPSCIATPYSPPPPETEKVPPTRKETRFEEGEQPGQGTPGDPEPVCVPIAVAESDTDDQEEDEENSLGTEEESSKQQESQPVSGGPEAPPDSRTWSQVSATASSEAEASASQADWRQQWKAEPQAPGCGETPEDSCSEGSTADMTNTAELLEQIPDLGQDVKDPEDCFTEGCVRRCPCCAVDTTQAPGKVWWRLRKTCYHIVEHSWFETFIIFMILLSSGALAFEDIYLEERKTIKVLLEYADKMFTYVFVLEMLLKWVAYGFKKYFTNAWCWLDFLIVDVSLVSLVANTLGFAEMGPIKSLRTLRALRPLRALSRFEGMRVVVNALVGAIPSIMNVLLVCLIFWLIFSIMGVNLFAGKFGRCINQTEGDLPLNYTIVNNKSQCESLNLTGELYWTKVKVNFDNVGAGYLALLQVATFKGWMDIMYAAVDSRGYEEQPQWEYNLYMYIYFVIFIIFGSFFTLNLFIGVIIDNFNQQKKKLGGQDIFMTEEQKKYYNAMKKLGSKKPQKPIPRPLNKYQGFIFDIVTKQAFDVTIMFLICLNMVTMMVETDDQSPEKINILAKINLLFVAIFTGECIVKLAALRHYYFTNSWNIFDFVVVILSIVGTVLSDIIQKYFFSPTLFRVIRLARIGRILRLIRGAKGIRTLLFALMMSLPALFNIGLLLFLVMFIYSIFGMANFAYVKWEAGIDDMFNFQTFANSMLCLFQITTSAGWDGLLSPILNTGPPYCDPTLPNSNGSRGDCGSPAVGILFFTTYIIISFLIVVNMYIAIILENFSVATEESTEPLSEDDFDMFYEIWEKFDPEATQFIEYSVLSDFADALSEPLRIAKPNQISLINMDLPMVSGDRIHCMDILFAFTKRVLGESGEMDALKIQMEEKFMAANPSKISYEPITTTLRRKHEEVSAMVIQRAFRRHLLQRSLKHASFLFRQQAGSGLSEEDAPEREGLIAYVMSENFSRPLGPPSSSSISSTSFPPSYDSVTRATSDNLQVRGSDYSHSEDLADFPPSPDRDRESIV
Procedure: as §1, §2, §3
Cells expressing hERG, sodium [SCN5A], or L-type calcium [Cav1.2] channels are placed in a plexiglass bath chamber, mounted on the stage of an inverted microscope, and perfused continuously with bath solution.
The sodium current bath solution contains (in mM): 70 NaCl, 70 NMDG, 4 KCl, 1.8 CaCl2, 1 MgCl2, 10 glucose, 10 HEPES (pH 7.4, NaOH). The patch pipette filling solution used in sodium experiments contains (in mM): 130 KCl, 1 MgCl2, 1 CaCl2, 5 ATP-K2, 10 EGTA, 10 HEPES (pH 7.2, KOH).
For determining steady state inhibition, sodium currents are elicited every 5 seconds (0.2 Hz) using the following voltage protocol. Cells are held at a potential of −90 mV and stepped to −20 mV for 45 ms. The peak sodium current in response to the depolarizing step to −20 mV is monitored in the control buffer and after application of test article until a new steady state in the presence of the test article is achieved. To assess the rate dependent inhibition of the sodium currents, trains of voltage steps at frequencies of 1 and 4 Hz (30 sweeps each) are applied to the cell prior to application of test article (control) and after steady state inhibition by test article, as determined at 0.2 Hz frequency. The voltage waveform used in the rate dependence experiments is the same as the waveform used for evaluating steady state inhibition at 0.2 Hz stimulation frequency. Rate dependent inhibition is calculated by comparing the 30th voltage sweep in presence of test article to the 30th voltage sweep under control conditions at each frequency tested.
Compounds are tested in 3 cells at each concentration in each ion channel assay. Currents are sampled at rates at least 2 times the low pass filter rate. The flow rate is kept constant throughout the experiments. All currents were recorded at room temperature ˜25° C. IC50 values are calculated using the sigmoidal concentration-response equation Y=A+((B−A)/(1+((C/X)^D))) in XLfit where A and B are the minimum and maximum % inhibition, C is the IC50 and D is the slope factor.
Find below in Table 11 data for compared compounds (See WO 2011/127106 A1).

[4] = Compound bioavailability assay in rats; format: in vivo; conditions: male, Sprague-Dawley, plasma, rat, oral
Procedure: Compound Bioavailability Assays
Male Sprague-Dawley rats (270-350 g) were used in the pharmokinetic studies. Two (2) groups of animals (N=3 per group) were fasted overnight and one group received test compound as an IV infusion dose (1 mg/kg over 10 minutes) via a jugular vein in PEG-400/propylene glycol/ethanol (50:40:10) or Cremophor-EL/PEG400/water (10:40:50, v/v/v). The other group received test compound by oral gavage (2 or 5 mg/kg) as either nano-suspension in Pluronic F-108/polyvinylpyrrolidinone/water (1:2.5:96.5, v/v/v) or in Methocel A4M/Tween 80/water (0.5:0.1:99.4, v/v/v) as suspension (partical size: d50=0.960 μm; d90=4.4 μm) for oral dosing. […]
Pharmacokinetic parameters were obtained by non-compartmental analysis of plasma concentration vs. time data (KINETICA™ software, Version 5.0, Thermo Fisher Scientific Corporation, Philadelphia, Pa.). The peak concentration (Cmax) and time for Cmax (Tmax) were recorded directly from experimental observations. The area under the curve from time zero to the last sampling time [AUC(0-T)] and the area under the curve from time zero to infinity [AUC(INF)] were calculated using a combination of linear and log trapezoidal summations. […] Estimations of AUC and T-HALF were made using a minimum of 3 timepoints with quantifiable concentrations. […]

half-life at 0.5 µM [1]	bioavailability ([4]; 5 mg/kg as a microsuspension)	bioavailability ([4]; 2 mg/kg as a microsuspension)	Compound	inhibition at 10 µM [2]	inhibition at 10 µM ([3]; 1 Hz)	inhibition at 10 µM ([3]; 4 Hz)	inhibition at 10 µM ([3]; human, 1 Hz)	inhibition at 10 µM ([3]; human, 4 Hz)
1.3 h	120%	–	Cc1nc(-n2cc(Cl)c(OC3CCN(c4ncc(Cl)cn4)CC3)cc2=O)ccc1N1CC[C@H](O)C1=O [Example 3, (S)-5-chloro-4-((1-(5-chloropyrimidin-2-yl)piperidin-4-yl)oxy)-5′-(3-hydroxy-2-oxopyrrolidin-1-yl)-6′-methyl-2H-[1,2′-bipyridin]-2-one]	9%	14%	23%	–	–
1.62 h	–	122%	Cc1nc(-n2cc(Cl)c(OC3CCN(c4ncc(Cl)cn4)CC3)cc2=O)ccc1N1CC[C@@H](O)C1=O [Example 4, (R)-5-chloro-4-((1-(5-chloropyrimidin-2-yl)piperidin-4-yl)oxy)-5′-(3-hydroxy-2-oxopyrrolidin-1-yl)-6′-methyl-2H-[1,2′-bipyridin]-2-one]	7%	6%	7%	6%	7%
